# Source: patent US5679671A, “Amino acid derivative” (Eisai Co., Ltd., priority 1993, dated 1997)
# pIC50: −log10 of the molar value.
# Assays:
# Assay type in all cases: biochemical
# [1] = target: T1, ACE (Rattus norvegicus, UniProt P47820); test: ACE inhibition activity using rat lung (Experiment A-2); details: rat lung membrane fraction, borate buffer pH 8.3
# T1 construct: membrane fraction prepared from rat lung; from tissue; host or cells: rat lung, membrane fraction (method of Wu-Wong et al.)
# T1 sequence (P47820 36-1313): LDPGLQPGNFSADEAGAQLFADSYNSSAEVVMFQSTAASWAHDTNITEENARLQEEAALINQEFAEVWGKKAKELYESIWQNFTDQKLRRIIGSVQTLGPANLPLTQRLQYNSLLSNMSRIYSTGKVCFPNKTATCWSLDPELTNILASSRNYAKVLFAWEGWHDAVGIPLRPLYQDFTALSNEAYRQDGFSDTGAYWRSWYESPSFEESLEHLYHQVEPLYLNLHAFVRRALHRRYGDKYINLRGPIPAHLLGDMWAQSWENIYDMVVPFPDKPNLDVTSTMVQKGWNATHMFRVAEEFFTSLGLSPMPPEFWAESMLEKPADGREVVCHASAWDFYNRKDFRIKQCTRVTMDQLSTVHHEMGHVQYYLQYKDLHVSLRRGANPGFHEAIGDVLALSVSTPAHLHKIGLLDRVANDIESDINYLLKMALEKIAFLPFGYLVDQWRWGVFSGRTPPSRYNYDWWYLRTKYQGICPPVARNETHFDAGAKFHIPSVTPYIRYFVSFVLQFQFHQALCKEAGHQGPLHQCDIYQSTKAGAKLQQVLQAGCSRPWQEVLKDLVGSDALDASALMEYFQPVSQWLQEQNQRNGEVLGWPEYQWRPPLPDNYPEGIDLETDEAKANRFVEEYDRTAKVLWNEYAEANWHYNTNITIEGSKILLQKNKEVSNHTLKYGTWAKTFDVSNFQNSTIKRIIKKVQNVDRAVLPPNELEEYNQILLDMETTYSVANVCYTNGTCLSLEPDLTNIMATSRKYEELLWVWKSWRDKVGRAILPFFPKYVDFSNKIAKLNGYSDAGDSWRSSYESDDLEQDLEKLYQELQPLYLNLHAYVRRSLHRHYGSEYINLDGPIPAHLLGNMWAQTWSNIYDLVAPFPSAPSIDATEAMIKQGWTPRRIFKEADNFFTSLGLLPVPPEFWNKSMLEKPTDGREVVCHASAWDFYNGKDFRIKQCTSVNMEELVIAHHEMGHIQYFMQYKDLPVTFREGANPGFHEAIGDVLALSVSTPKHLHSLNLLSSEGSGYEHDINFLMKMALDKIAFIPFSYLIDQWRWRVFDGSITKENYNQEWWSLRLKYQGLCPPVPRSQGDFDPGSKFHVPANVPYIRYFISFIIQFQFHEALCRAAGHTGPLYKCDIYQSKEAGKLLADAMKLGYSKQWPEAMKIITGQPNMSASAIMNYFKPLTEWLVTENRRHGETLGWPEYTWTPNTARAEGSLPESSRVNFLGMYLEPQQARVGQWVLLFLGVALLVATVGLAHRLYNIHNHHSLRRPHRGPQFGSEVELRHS
# Procedure: (§1) The ACE inhibition activity was determined by using a membrane fraction prepared from rat lung in accordance with the method of Wu-Wong et al. (Characterization of Endthelin Converting Enzyme in Rat Lung., Junshyum R. Wu-Wong, Gerald, P. Budzik, Edward M. Devine and Terry J. Opgenorth, Biochem. Biophys. Res. Commun., 1990, 171, 1291-1296.).
# The ACE activity was determined with the use of a modification (modified to a borate buffer, pH 8.3) of the method of Cushman and Cheung (Spectrophotometric Assay and Properties of the Angiotensin-Converting Enzyme of Rabbit Lung., Cushman, D. W. and Cheung H. S., 1971, 20, 1637-1648.).
# (§2) In the presence of ACE, the hippurate liberated from hippuryl-histidyl-leucine (Hippuryl-His-Leu (PeptideInstitute Inc., Japan)) was extracted with ethyl acetate and then the absorbance was measured at a wavelength of 228 nm.
# (§3) With respect to the ACE inhibition activity, the inhibitor was added to the experimental system as described above in such a manner as to give the final concentrations of 1, 3, 10, 30, 100, 300 and 1000 nM, an inhibition curve was prepared, and then the concentration at which 50% inhibition was achieved was taken as IC50.
# [2] = target: T2, NEP (Rattus norvegicus, UniProt P07861); test: NEP inhibition activity using rat renal cortex (Experiment A-1); parameters: membrane fraction prepared from rat renal cortex; from tissue; host or cells: rat renal cortex, membrane fraction (method of Booth and Kenny); details: rat renal cortex membrane fraction
# T2 sequence (P07861 1-750): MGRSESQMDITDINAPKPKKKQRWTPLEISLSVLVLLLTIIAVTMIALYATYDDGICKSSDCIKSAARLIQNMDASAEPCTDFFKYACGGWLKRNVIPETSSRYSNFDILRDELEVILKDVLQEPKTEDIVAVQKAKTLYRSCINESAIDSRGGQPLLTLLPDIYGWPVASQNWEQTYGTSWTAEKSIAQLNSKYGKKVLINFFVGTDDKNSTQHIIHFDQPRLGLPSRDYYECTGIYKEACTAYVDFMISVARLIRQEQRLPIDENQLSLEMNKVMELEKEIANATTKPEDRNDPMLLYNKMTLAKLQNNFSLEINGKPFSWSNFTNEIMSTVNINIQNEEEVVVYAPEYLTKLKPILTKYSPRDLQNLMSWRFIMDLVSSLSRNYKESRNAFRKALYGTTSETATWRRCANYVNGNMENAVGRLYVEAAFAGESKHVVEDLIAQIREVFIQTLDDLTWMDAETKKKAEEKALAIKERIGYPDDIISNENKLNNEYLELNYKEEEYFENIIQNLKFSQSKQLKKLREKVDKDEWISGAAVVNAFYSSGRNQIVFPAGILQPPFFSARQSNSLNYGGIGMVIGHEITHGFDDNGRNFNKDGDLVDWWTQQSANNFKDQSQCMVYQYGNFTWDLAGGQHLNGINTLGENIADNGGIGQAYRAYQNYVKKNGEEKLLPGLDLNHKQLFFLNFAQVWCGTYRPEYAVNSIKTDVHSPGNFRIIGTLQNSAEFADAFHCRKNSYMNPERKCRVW
# Procedure: The NEP activity was determined by using a membrane fraction prepared from rat renal cortex in accordance with the method of Booth and Kenny (A Rapid Metod for the Purificaton of Microvilli from Rabbit Kidney., Andrew G. Booth and A. John Kenny, Biochem j., 1974, 142, […].).
# The NEP activity was determined by the following manner in accordance with the method of Orlowsky and Wilk (Purification and Specificity of a Membrane-Bound Metalloendopeptidase from Bovine Pituitaries., Marian Orlowsky and Shrwin Wilk, Biochemistry, 1981, 20, 4942-4950.).
# (§4) As a substrate, benzoyl-glycyl-arginyl-arginyl-2-naphthylamide (benzoyl-Gly-Arg-Arg-2-naphthylamide (Nova Biochem, Switzerland)) was used. In the presence of an NEP enzyme preparation and excessive leucine aminopeptidase (sigma chemical Co., U.S.A.), the liberated naphthylamine was made to undergo color development with first garnet (Sigma chemical Co., U.S.A.), followed by the measurement of the absorbance at a wavelength of 540 nm.
# as §3, with “NEP” for “ACE”
# [3] = target: T1, ACE; test: ACE inhibition activity using rat lung (Experiment C-2); details: Table C-1; rat lung membrane fraction, borate buffer pH 8.3
# Procedure: as §1, with “Gerald” for “Gerald,”
# The ACE activity was determined with the use of a modification (modified to a borate buffer, pH 8.3) of the method of Cushman and Cheung (Spectrophotometric Assay and Properties of the Angiotensin-Converting Enzyme of Rabbit Lung., Cushman D. W. and Cheung H. S., 1971, 20, 1637-1648.).
# as §2
# as §3, with “test compound” for “inhibitor”, “reaction” for “experimental”, “IC50. As a comparative compound, [4S-[4α,7α(R*),12bβ]]-7-[(1-oxo-2-(S)-thio-3-phenyl-propyl)amino]-1,2,3,4,6,7,8,12b-octahydro-6-oxopyrido-[2,1-a][2]benzazepine-4-carboxylic acid was used.” for “IC50.”
# [4] = target: T2, NEP; test: NEP inhibition activity (Experiment C-1); details: Table C-1
# Procedure: The NEP activity was determined by the following manner in accordance with the method of Orlowsky and Wilk (Purification and Specificity of a Membrane-Bound Metalloendpeptidase from Bovine Pituitaries., Marian Orlowsky and Shrwin Wilk, Biochemistry, 1981, 20, 4942-4950.).
# as §4
# as §3, with “NEP” for “ACE”, “test compound” for “inhibitor”, “IC50. As a comparative compound, [4S-[4α,7α(R*),12bβ]]-7-[(1-oxo-2-(S)-thio-3-phenyl-propyl)amino]-1,2,3,4,6,7,8,12b-octahydro-6-oxopyrido-[2,1-a][2]benzazepine-4-carboxylic acid was used.” for “IC50.”
# [5] = target: T1, ACE; test: ACE inhibition activity (Experiment E-1); details: rat lung membrane fraction, pH 8.3
# Procedure: As a source of the enzyme ACE, a membrane fraction prepared from rat lung in accordance with the method of Wu-Wong et al. (Characterization of Endthelin Converting Enzyme in Rat Lung., Jinshyum R. Wu-Wong, Gerald, P. Budzik, Edward M. Devine and Terry J. Opgenorth, Biochem. Biophys. Res. Commun., 1990, 171, 1291-1296.) was used. The ACE activity was determined with the use of a modification (modified to a borate buffer pH 8.3) of the method of Cushman and Cheung (Spectrophotometric Assay and Properties of the Angiotensin-Converting Enzyme of Rabbit Lung., Cushman D. W. and Cheung H. S., 1971, 20, 1637-1648.). Now the procedure will be briefly described.
# as §2
# (§5) To determine the NEP inhibition activity and the ACE inhibition activity, the inhibitor was added to the assay systems of both enzyme activities as described above in such a manner as to give the final concentrations of 1, 3, 10, 30, 100, […] and 1000 nM and inhibition curves were prepared. Then the concentration at which 50% inhibition was achieved was taken as IC50.
# [6] = target: T2, NEP; test: NEP inhibition activity (Experiment E-1); parameters: membrane fraction prepared from rat renal cortex; from tissue; host or cells: rat renal cortex, membrane fraction (method of Booth and Kenny); details: rat renal cortex membrane fraction
# Procedure: As a source of the enzyme NEP, a membrane fraction prepared from rat renal cortex in accordance with the method of Booth and Kenny (A Rapid Method for the Purification of Microvilli from Rabbit Kidney., Andrew G. Booth and A. John Kenny, Biochem. j., 1974, 142,575-581.) was employed. The NEP activity was determined in accordance with the method of Orlowsky and Wilk (Purification and Specificity of a Membrane-Bound Metalloendpeptidase from Bovine Pituitaries., Marian Orlowsky and Shrwin Wilk, Biochemistry, 1981, 20, 4942-4950.). Now the procedure will be briefly described.
# as §4, with “(benzoyl-Gly-Arg-Arg-2 naphthylamide” for “(benzoyl-Gly-Arg-Arg-2-naphthylamide”
# as §5
pIC50 [1],pIC50 [2],SMILES,other results
7.30,7.05,"O=C(O)CN1C(=O)C(NC(=O)[C@@H](S)Cc2ccccc2)CCc2ccc(-c3ccccc3)cc21 (stereo partly drawn) [Example A-3, 1-Carboxymethyl-3-[(S)-2-mercapto-3-phenylpropionylamino]-8-phenyl-1H-[1]benzazepin-2-one]",–
7.30,6.80,CC(C)[C@H](S)C(=O)NC1CCc2ccc(-c3ccccc3)cc2N(CC(=O)O)C1=O (stereo partly shown) [Example A-5],–
8.00,8.09,"O=C(O)CN1C(=O)C(NC(=O)[C@@H](S)Cc2ccccc2)CCc2ccccc21 (stereo partly drawn) [Example A-7, 1-Carboxymethyl-3-[(S)-2-mercapto-3-phenylpropionylamino]1H-[1]benzazepin-2-one]",–
–,–,"CC[C@H](C)[C@H](S)C(=O)N[C@H]1Cc2ccc(NS(C)(=O)=O)cc2[C@H]2CCC[C@@H](C(=O)O)N2C1=O [Example C-15, [4S-[4α,7α(R*),12bβ]]-11-Methylsulfonylamino-7-[[(2S,3S)-3-methyl-1-oxo-2-thiopentyl]amino]-6-oxo-1,2,3,4,6,7,8,12b-octahydropyrido[2,1-a][2]benzazepine-4-carboxylic acid]",pIC50 [3]: 7.90; pIC50 [4]: 8.18
–,–,"COc1ccc(C[C@H](S)C(=O)N[C@H]2Cc3ccc(-c4ccccc4)cc3[C@H]3CCC[C@@H](C(=O)O)N3C2=O)cc1 [Example E-7, [4S-[4α,7α(R*),12bβ]]-7-[(S)-2-Mercapto-3-(4-methoxyphenyl)propionylamino]-6-oxo-11-phenyl-1,2,3,4,6,7,8,12b-octahydropyrido[2.1-a][2]benzazepine-4-carboxylic acid]",pIC50 [5]: 7.96; pIC50 [6]: 7.35
